Where “and” joins values, the source holds several entries; their conditions need not be identical. Identical values can stand only once. Entries after “also recorded” stand apart in the source; their conditions may differ. Like-named read-outs stand apart in the source and are kept apart here. One block for each molecule: values may come before it.
Key:
AII-1 receptor [1] = assay: DTT inactivation of the AII-1 receptor; format: binding, rat
Description: (§1) 102: 685-696, except the above binding assay conditions were used.

AII receptor subtype A = settings: cited from earlier work
AII receptor subtype B = settings: cited from earlier work
AII-2 receptor [2] = biological target: T1, AII-2 receptor (Rattus norvegicus, UniProt P35351); assay: DTT inactivation of the AII-2 receptor; format: binding; parameters: AII-1 and AII-2 receptor subtypes in rat adrenal cortex microsomes; from tissue; host or cells: rat adrenal cortex (microsomes)
T1 sequence (P35351 1-363): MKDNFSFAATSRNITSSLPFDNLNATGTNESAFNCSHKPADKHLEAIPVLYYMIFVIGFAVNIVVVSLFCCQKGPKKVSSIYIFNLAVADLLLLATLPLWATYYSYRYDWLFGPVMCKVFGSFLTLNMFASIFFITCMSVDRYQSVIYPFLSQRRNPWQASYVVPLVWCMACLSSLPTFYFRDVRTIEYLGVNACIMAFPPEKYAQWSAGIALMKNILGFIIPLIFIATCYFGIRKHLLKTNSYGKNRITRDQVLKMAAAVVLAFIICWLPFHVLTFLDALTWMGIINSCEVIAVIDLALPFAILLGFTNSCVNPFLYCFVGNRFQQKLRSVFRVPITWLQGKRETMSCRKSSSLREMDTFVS
Description: as §1

AII-1 receptor [3] = assay: [125I]AII radioligand binding, rat adrenal cortical microsomes, AII-1 (DuP 753-sensitive) sites; settings: for preference for one AII receptor subtype: AII-1 vs. AII-2
Description: (§2) The same procedures and conditions were used for adrenal medullary microsomes. […] After 60 min of incubation, the reaction was terminated by addition of cold assay buffer. The bound and free radioactivity were rapidly separated through glass-fiber filters, and the trapped radioactivity was determined by gamma counting.

[4] = biological target: T2, AII receptors (rat adrenal medullary microsomes) (Rattus norvegicus, UniProt P35351); assay: [125I]AII specific binding, rat adrenal medulla / medullary microsomes
T2 construct: from tissue; host or cells: rat adrenal medulla, microsomes
T2 sequence (P35351 1-363): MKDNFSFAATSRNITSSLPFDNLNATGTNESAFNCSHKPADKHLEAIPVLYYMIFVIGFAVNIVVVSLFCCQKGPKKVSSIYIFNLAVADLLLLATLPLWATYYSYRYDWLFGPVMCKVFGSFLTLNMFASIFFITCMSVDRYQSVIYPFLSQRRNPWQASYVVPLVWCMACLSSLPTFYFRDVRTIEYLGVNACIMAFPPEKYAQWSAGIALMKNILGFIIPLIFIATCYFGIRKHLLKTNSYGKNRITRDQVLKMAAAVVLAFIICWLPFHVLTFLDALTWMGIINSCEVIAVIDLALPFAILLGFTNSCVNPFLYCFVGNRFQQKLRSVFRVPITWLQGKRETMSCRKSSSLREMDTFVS
Description: as §2

[5] = system: AII receptors (rat adrenal medullary microsomes); assay: as above; settings: below 1×10^-5 M; rat adrenal medullary microsomes
Description: as §2

[6] = system: AII receptors (rat adrenal cortical membranes); assay: AII binding to rat adrenal cortical membranes with and without DTT pretreatment; settings: for effect of DTT on the inhibition of AII binding: 5 mM DTT, DuP 753 at 3×10^-9 to 3×10^-6 M
Description: as §1

[7] = system: AII receptors (rat adrenal gland); settings: DuP 753 10^-5 M, XB-655 10^-6 M
Description: Fresh tissue was frozen on powdered dry ice and stored at -70° C. until used. Sections were cut at 15 microns and thaw mounted onto gelatin subbed slides. […] Slides were placed under X-ray film (Kodak XAR-5) and exposed for 11/2 days before processing the film to produce the film autoradiograms. The slides were then fixed with paraformaldehyde vapor at 80° C. for two hours, dried under air, delipidated, and dipped in emulsion (Kodak NTB-2). The coated slides were exposed for 4-5 weeks, developed with Kodak D-19 and counter-stained with hemotoxylin-eosin to view the histology.

[8] = system: AII receptors (rat adrenal cortical microsomes); assay: [125I]AII total specific binding, rat adrenal cortex / cortical microsomes
Description: as §2

AII-2 receptor [9] = biological target: T1, AII-2 receptor; assay: [125I]AII radioligand binding, rat adrenal cortical microsomes, AII-2 (DuP 753-insensitive) sites; settings: for selective binding to AII-2 receptors: AII-2 vs. AII-1
Description: as §2

[10] = system: memory of previously learned tasks; settings: in vivo; cited from earlier work
PA task = assay: renin-induced amnesia in a PA task (applicants); format: in vivo; settings: IVT
avoidance learning = settings: renin IVT, cited from earlier work; for avoidance learning: captopril IVT prior to the renin injection
[11] = system: light/dark habituation performance; settings: cited from earlier work
[12] = system: retention of a passive avoidance (PA) response; settings: injected into the dorsal neostriatum, rats; cited from earlier work
[13] = system: potassium stimulated release of [^3 H]ACh; settings: entorhinal cortex of rat brain; cited from earlier work
[14] = in the presence of 10^-5 M XB-655, rat adrenal cortex microsomes, read-out: IC50 AII-1

inactivation of AII-2 receptor by DTT (AII-2 receptor [2]): resistant to DTT inactivation
Molecule: O[C@H](CS)[C@H](O)CS (racemic) [DTT, dithiothreitol]
inactivation of AII-1 receptor by DTT (AII-1 receptor [1]): particularly sensitive to inactivation; also recorded: inactivated by DTT | effect of DTT on binding to subtype A (AII receptor subtype A): enhance binding to subtype A | effect of DTT on binding to subtype B (AII receptor subtype B): inhibit binding to subtype B

Molecule: CCCCc1nc(Cl)c(CO)n1Cc1ccc(-c2ccccc2-c2nn[nH]n2)cc1 [DuP 753]
IC50 (AII-1 receptor [3]; [14]): 12 nM | inhibition of AII binding (in words) ([4]; rat adrenal medulla): essentially inactive | inhibition of binding below 1×10^-5 M [5]: 10% | effect of DTT on the inhibition of AII binding [6]: essentially abolished | labeling of adrenal cortex by [125I]AII [7]: significantly reduced | labeling of adrenal medulla by [125I]AII [7]: not appreciably affected | inhibition of the total AII binding [8]: 80%

IC50 (AII-1 receptor [3]; [14]): 12000 nM | selective binding to AII-2 receptors (AII-2 receptor [9]): bind selectively to AII-2 receptors
Molecule: COC(=O)C1Cc2c(ncn2Cc2ccc(NC(=O)c3ccccc3C(=O)O)c(C)c2)CN1C(=O)C(c1ccccc1)c1ccccc1 (centres unmarked) [Example 2, Methyl-1-[4-amido-(2'-carboxyphenyl)-3-methylphenyl]methyl-5-diphenylacetyl-4,5,6,7-tetrahydro-1H-imidazo (4,5-C)-pyridine-6-carboxylate]

IC50 (AII-1 receptor [3]; [14]): 300000 nM | selective binding to AII-2 receptors (AII-2 receptor [9]): bind selectively to AII-2 receptors
Molecule: O=C(O)C1Cc2c(ncn2Cc2ccc(-c3ccccc3-c3nnn[nH]3)cc2)CN1C(=O)C(c1ccccc1)c1ccccc1 (centres unmarked) [Example 27]

Molecule: NCCCC[C@H](OP(=O)(O)CCCCc1ccccc1)C(=O)N1CCC[C@H]1C(=O)O [SQ 29852]
anticholinergic effect on performance [10]: ameliorate, at least in part | memory of previously learned tasks [10]: protective effects on memory

preference for one AII receptor subtype (AII-1 receptor [3]): no preference | IC50 (AII-1 receptor [3]; [14]): 1.7 nM | IC50 (AII-1 receptor [3]; read-out: IC50, DuP 753-sensitive site, in the presence of 10^-5 M XB-655, unit inferred): ~1.7 nM | IC50 ([4]; rat adrenal medulla / medullary microsomes): 0.4 nM | effect of DTT on the inhibition of AII binding [6]: not significantly altered | IC50 (AII-2 receptor [9]; IC50 AII-2, in the presence of 10^-5 M DuP 753, rat adrenal cortex microsomes): ~1.3 nM and 1.3 nM
Molecule: CNCC(=O)N[C@@H](CCCN=C(N)N)C(=O)N[C@H](C(=O)N[C@@H](Cc1ccc(O)cc1)C(=O)N[C@H](C(=O)N[C@@H](Cc1cnc[nH]1)C(=O)N1CCC[C@H]1C(=O)N[C@@H](C)C(=O)O)C(C)C)C(C)C [Saralasin]

Molecule: C[C@H](CS)C(=O)N1CCC[C@H]1C(=O)O [captopril]
amnesia in a PA task (PA task): prevented | avoidance learning (avoidance learning): prevented the renin-induced avoidance disruption | anticholinergic scopolamine-induced disruption of performance ([11]; daily treatment): prevented | rate of acquisition of light/dark habituation performance ([11]; subchronic treatment): increased the rate of acquisition

Molecule: NC(=O)[C@@H]1CCCN1C(=O)[C@H](Cc1cnc[nH]1)NC(=O)[C@@H]1CCC(=O)N1 [thyrotropin releasing hormone]
retention of a PA response [12]: no effect

Molecule: Angiotensin II (DRVYIHPF; Angiotensin-2; UniProt P01019 25-32, looked up) [AII]
preference for one AII receptor subtype (AII-1 receptor [3]): no preference | enhancement of inhibitory potency by DTT ([6]; presence vs. absence of DTT): 2.5 fold | IC50 ([6]; read-out: IC50 in the absence of DTT, absence of DTT): 1 nM | retention of a PA response [12]: disruption in retention of a PA response | basal levels of ACh release [13]: without effects on basal levels | potassium-stimulated release of ACh [13]: reduced potassium-stimulated release of ACh | labeling of adrenal cortex by [125I]AII [7]: potently inhibited the labeling | labeling of adrenal medulla by [125I]AII [7]: potently inhibited the labeling

Molecule: [1-sarcosine, 8-threonine]angiotensin II
antagonism of the AII effect on ACh release [13]: antagonized

Molecule: lysine-8-vasopressin
retention of a PA response [12]: no effect

B1: renin: an enzyme involved in endogenous AII biosynthesis (protein, UniProt P00797 67-406, looked up)
Renin: LTLGNTTSSVILTNYMDTQYYGEIGIGTPPQTFKVVFDTGSSNVWVPSSKCSRLYTACVYHKLFDASDSSSYKHNGTELTLRYSTGTVSGFLSQDIITVGGITVTQMFGEVTEMPALPFMLAEFDGVVGMGFIEQAIGRVTPIFDNIISQGVLKEDVFSFYYNRDSENSQSLGGQIVLGGSDPQHYEGNFHYINLIKTGVWQIQMKGVSVGSSTLLCEDGCLALVDTGASYISGSTSSIEKLMEALGAKKRLFDYVVKCNEGPTLPDISFHLGGKEYTLTSADYVFQESYSSKKLCTLAIHAMDIPPPTGPTWALGATFIRKFYTEFDRRNNRIGFALAR
amnesia in a PA task (PA task): dose-related amnesia | avoidance learning (avoidance learning): disruption of avoidance learning | AII level in cerebrospinal fluid (CSF) (avoidance learning; increase from 40): about 5000 fmol per mL
